From US20250275938A1, “COMPOSITIONS AND METHODS FOR TREATMENT OF CANCER” (SCIROSBIO (FZC), priority 2022, published 2025)

Tests used:
[1] = system: human breast cancer (MDA-MB-453) cells; assay: MTT cell viability assay, MDA-MB-453; type: cell-based; settings: 24 hours
Method: Cell lines and culture conditions: A human breast cancer cell line MDA-MB-453 and human bone cancer cell line SaoS2 were obtained from National Centre for Cell Science (NCCS), Pune, India. The MDA-MB-453 cells were sub-cultured in Dulbecco's Modified Eagle's Medium (DMEM) supplemented with 10% FBS at 5% CO2 and 37° C. The SaoS2 cells were sub-cultured in McCoy's 5A media supplemented with 10% FBS at 5% CO2 and 37° C. […] The cells were allowed to attach 70% to the surface prior to treatment. […] Suspensions were aspirated 10 times before treatment. Cells treated with vehicle control were used as a control. Cell viability assay: MDA-MB-453 and SaoS2 cells (5×10^3 cells/ml) were seeded in 96-well plates and exposed to different individual-drug treated groups with varying concentrations (0, 20, 40, 60, 80, 100, 120, 140, 160, 180 and 200 μM) for a period of 24 hours.

[2] = system: SOD, CAT, GPx, GSH in C6 glioma cells; assay: Antioxidant marker kits (SOD, CAT, GPx, GSH), C6; type: cell-based, rat; settings: vs control
Method: Antioxidant markers. […] All experiments were carried out according to the manufacturer's instructions. Three independent biological replicates were performed for each condition.

[3] = system: human pancreatic cancer (PANC1) cells; assay: MTT cell viability assay, PANC1; type: cell-based; settings: 24 hours
Method: Cell lines and culture conditions: A human pancreatic cancer cell line PANC1 and human colon cancer cell line HCT116 were obtained from National Centre for Cell Science (NCCS), Pune, India. The PANC1 cells were sub-cultured in Dulbecco's Modified Eagle's Medium (DMEM) supplemented with 10% FBS at 5% C02 and 37° C. The HCT116 cells were sub-cultured in McCoy's 5A media supplemented with 10% FBS at 5% CO2 and 37° C. […] The cells were allowed to attach 70% to the surface prior to treatment. […] Suspensions were aspirated 10 times before treatment. Cells treated with vehicle control were used as a control. Cell viability assay: PANC1 and HCT116 cells ([…] cells/ml) were seeded in 96-well plates and exposed to different individual-drug treated groups with varying concentrations (0, 20, 40, 60, 80, 100, 120, 140, 160, 180 and 200 μM) for a period of 24 hours. The individual-treated groups include Group I: 5 Fluorouracil (5FU)-treated PANC1 and HCT116 cells; Group II: MET-treated PANC1 and HCT116 cells; Group III: EGCG-treated PANC1 and HCT116 cells and Group IV: 5FU+[…] PANC1 and HCT116 cells.

TBARS in U87MG cells = assay: TBARS (MDA) assay, U87MG; type: cell-based, human; settings: vs control
Method: Determination of TBARS levels. TBARS (thiobarbituric acid reactive substances), by-products of lipid peroxidation, were analyzed by measuring the concentration of malondialdehyde (MDA). The levels of MDA were measured in cell lysates using TBARS assay (Catalog No. 10009055, Cayman Chemical, Ann Arbor, USA). The concentration of lipid peroxides was calculated as an MDA equivalent using the extinction coefficient for the MDA-TBA complex of 1.56×10^5 M−1 cm^−1 at 532 nm.

rat brain tissue = assay: Gene expression (qRT-PCR) in brain tissue of glioma-induced rats; type: in vivo; settings: i.p. 7 days; vs tumor-control
Method: Quantitative RT-PCR analysis of antioxidant enzymes (SOD and CAT), oxidative stress marker (Nrf-2), and apoptosis markers (BCL2 and Caspase-9). Total RNA from all experimental groups was isolated using RNA Express reagent (HiMedia, India) and the respective cDNAs were synthesized using a Hi-c-DNA Synthesis Kit (HiMedia, India). Quantitative RT-PCR was carried out using a CFX 96 thermocycler (Bio-Rad, Hercules, CA) and TB Green Premix Ex Taq 1 (Takara Bio, Otsu, Japan) to detect mRNA. Independent experiments were conducted in triplicate. The cycle threshold (Ct), representing a positive PCR result, is defined as the cycle number at which a sample's fluorescence intensity crossed the threshold automatically determined by the CFX 96.
The relative changes in gene expression were calculated with the 2^−ΔΔCt method, wherein ΔΔCt=(Cttarget gene−Ctβ-actin) sample−([…]) calibrator.
The qPCR analyses were performed to measure the expression levels of genes associated with anti-Warburg effect. The total RNA was extracted from the cell lysates and brain tissues of all the experimental groups using TRIZOL reagent (Takara Bio, Shiga, Japan). Quantitative RT-PCR was carried out using a CFX96 Real Time PCR Detection System (Bio-Rad, California, USA) and TB Green Premix Ex Taq I (Takara Bio, Shiga, Japan) to detect messenger ribonucleic acid (mRNA). […]

U87MG human glioma cells = assay: AO/EtBr dual staining for apoptosis, U87MG; type: cell-based; settings: respective IC50 concentrations
Description: AO/EtBr are fluorescent nuclear stains, which distinguish between live and dead cells based on their membrane integrity. AO intercalates in the DNA of live cells imparting green shade to the nucleus as an indica-tor of viability. In the case of the dead cell, EtBr intercalates along with AO, resulting in an orange appearance, with an increased orange appearance corresponding to a concomitant increase in the number of dead cells and vice versa.
After the treatment period, monolayer cells were stained with AO/EtBr stain (1 mg/ml) and were visualized immediately under a fluorescence microscope (Axiovert, Carl Zeiss) at 20× magnification.

[4] = LC/MS of drugs and active metabolites in plasma and brain (blood brain barrier); type: in vivo, rat
Method: T, M & E (Sigma Aldrich, St. Louis, USA) were dissolved in sterile water and administered intra peritoneally for 7 days (from day 21 to day 27; where the day of tumor induction is considered day 0) to a rat with the dose specified in Table-4 (TME: 50+80+150 mg/kg body weight). After 7 days of treatment (on day 28), blood (plasma) was collected and the rat was euthanized, immediately the brain tissue was collected and stored at −80° C. The brain tissue was then processed accordingly to measure active metabolites through LC/MS.
To 100 μl of plasma or brain (0.5 g crushed in 0.5 mL of sterile water), 20 μl of the working internal standard solution was added. The samples were deproteinised with acetonitrile and the supernatant (100 μl) was injected into the chromatographic system. For the brain, as described above, ciprofloxacin solution (20 μl) was added to 100 μl of crushed brain. Then, repeating the plasma sample process, 20 μl of the solution was injected into the chromatographic system.

[5] = triple combination TME 50+80+150 mg/kg i.p. 7 days, NA = not detected

Structure (SMILES) | cell viability (MTT), in words [1] | concentrations of antioxidant markers SOD, CAT, GPx, and GSH [2] | cell viability (MTT), in words [3] | TBARS levels (TBARS in U87MG cells) | gene expression levels of Nrf-2 and HIF-1α (rat brain tissue) | apoptotic cell death (AO/EtBr) (U87MG human glioma cells) | apoptotic cell death (AO/EtBr) (U87MG human glioma cells; listed as E) | transport across the blood brain barrier, in words ([4]; administered individually and in combination) | Detected mass in LC-MS Brain ([4]; individually treated T, M and E, i.p. 7 days, NA = not detected) | Detected mass in LC-MS Brain [4, 5] | Detected mass in LC-MS Plasma [4, 5] | apoptotic cell death (AO/EtBr) (U87MG human glioma cells; hydrochloride) | apoptotic cell death (AO/EtBr) (U87MG human glioma cells; listed as M, hydrochloride)
O=C(O[C@@H]1Cc2c(O)cc(O)cc2O[C@@H]1c1cc(O)c(O)c(O)c1)c1cc(O)c(O)c(O)c1 [EGCG, [(2R,3R)-5,7-dihydroxy-2-(3,4,5-trihydroxyphenyl)-3,4-dihydro-2H-chromen-3-yl] 3,4,5-trihydroxybenzoate] | reduction in cell viability in a dose-dependent fashion | significantly enhanced | reduction in cell viability in a dose-dependent fashion | significantly elevated | reduced expression | did not produce any significant apoptotic activity | no apoptosis | crossed the BBB in its native form | 466.11 | 456.11 | 452.91 | – | –
CN(C)C(=N)N=C(N)N.Cl [MET, 3-(diaminomethylidene)-1,1-dimethylguanidine; hydrochloride] | reduction in cell viability in a dose-dependent fashion | – | reduction in cell viability in a dose-dependent fashion | – | – | – | – | – | – | – | – | did not produce any significant apoptotic activity | no apoptosis but loss of cell membrane integrity
